Literature values in patent publication US20120328543A1, “USE OF A CATIONIC, ADVANTAGEOUSLY AMPHOTERIC, SURFACTANT FOR THE PREPARATION OF AN ANTIFUNGAL SOLUTION THAT CAN BE APPLIED TO THE NAIL” (priority 2009, published 2012).

Experiments:
[1] = not given; remark: listed apart in the source

SMILES: CN(C/C=C/C#CC(C)(C)C)Cc1cccc2ccccc12.Cl [Terbinafine HCl, terbinafine hydrochloride]
- pKa: 7.10
- solubility in water [1]: 5.32 µg/mL
